Reference: PubChem BioAssay (NCI)
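Five concentrations, 48 hours, 96-well plates. The concentration for 50% growth inhibition is given as GI50. TGI marks complete inhibition of growth.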

Assays:
Assay in all cases: NCI anticancer screen, dose series, 48 h
[1] = system: COLO 205 colon
[2] = system: EKVX NSCLC
[3] = system: HL-60(TB) leukemia
[4] = system: MALME-3M melanoma
[5] = system: OVCAR-8 ovarian
[6] = system: SF-295 CNS
[7] = system: SK-MEL-28 melanoma
[8] = system: SNB-75 CNS
[9] = system: T-47D breast
[10] = system: U251 CNS

SMILES | GI50 [1] | TGI [1] | GI50 [2] | TGI [2] | GI50 [3] | TGI [3] | GI50 [4] | TGI [4] | GI50 [5] | TGI [5] | GI50 [6] | TGI [6] | GI50 [7] | TGI [7] | GI50 [8] | TGI [8] | GI50 [9] | TGI [9] | GI50 [10] | TGI [10]
COc1ccc2c(CN3CCCC[C@H]3O)cc3cc4c(cc3c2c1)OCO4 | 0.185 µM | 1.36 µM | 0.817 µM | 9.44 µM | 0.351 µM | 1.35 µM | 0.218 µM | 0.61 µM | 0.268 µM | 3.94 µM | 0.354 µM | 2.81 µM | 0.329 µM | 1.31 µM | 0.5 µM | 1.86 µM | 0.393 µM | 5.46 µM | 0.422 µM | 10.8 µM
Fc1ccc(-c2ncn(C3CCNCC3)c2-c2ccnc(Oc3ccc(Cl)cc3)n2)cc1 | 3.76 µM | 7.31 µM | 6 µM | > 21.3 µM | 4.96 µM | 11.6 µM | 4.64 µM | 10.1 µM | 4.14 µM | 8.99 µM | 4.39 µM | 9.26 µM | 4.17 µM | 7.85 µM | 3.4 µM | 14.3 µM | 2.74 µM | 6.71 µM | 3.66 µM | 7.24 µM
O=C(OCC1=CC(=O)c2ccccc2C1=O)c1ccccc1 | 2.74 µM | 10.7 µM | 12.9 µM | 27.5 µM | 3.72 µM | 14.1 µM | 1.43 µM | 3.12 µM | 14.4 µM | 29.1 µM | 6.41 µM | 20.5 µM | 13 µM | 28 µM | 14.7 µM | 29.4 µM | 14.6 µM | 42.3 µM | 14.6 µM | 28.5 µM
CCOC(=O)c1sc(NC(=O)COc2ccc(/C=C3\CCc4cc(OC)ccc4C3=O)cc2)nc1C | 15.5 µM | 30 µM | 18.5 µM | 53.3 µM | 0.294 µM | 0.949 µM | 1.13 µM | 12.6 µM | 9.5 µM | 34.7 µM | 11.1 µM | 23.9 µM | 14.6 µM | 27.7 µM | 6.73 µM | 24.3 µM | 9.13 µM | 30.7 µM | 8.75 µM | 21.8 µM
Cc1nc(C(=O)OCc2ccccc2)cc(OCc2ccccc2)c1C | 22.6 µM | 65.1 µM | 19.3 µM | 52.7 µM | 1.53 µM | 25 µM | 24.4 µM | 52.1 µM | 21.9 µM | 69.2 µM | 19.7 µM | 46.8 µM | 15.5 µM | 29.8 µM | 17.5 µM | 39.4 µM | 18.8 µM | > 100 µM | 17.6 µM | 48.2 µM
CC(C)(O)c1cc(Nc2cc(Oc3cn(C4CC4)nc3C3CCOCC3)ccn2)ccn1 | 60.9 µM | > 100 µM | > 100 µM | > 100 µM | 27.6 µM | > 100 µM | > 100 µM | > 100 µM | > 100 µM | > 100 µM | 64.3 µM | > 100 µM | > 100 µM | > 100 µM | 22 µM | > 100 µM | 23.6 µM | > 100 µM | > 100 µM | > 100 µM
O=C1C=C(NCCc2ccccc2)c2ccccc2C1=O |  | 3.6 µM |  | 20.8 µM |  | 13.6 µM |  | 2.47 µM |  | 19.7 µM |  | 4.76 µM |  | 3.96 µM |  | 3.14 µM |  | 40.1 µM |  | 16.1 µM
CN(C)CCN=c1nc2c(c(N)n1-c1ccccc1)c(=S)n(-c1ccccc1)c(=S)n2-c1ccccc1 | 1.52 µM | 3.32 µM | 11 µM | 27.2 µM | 1.52 µM | 3.3 µM | 2.04 µM | 3.93 µM | 4.76 µM | 17.6 µM | 2.31 µM | 6.37 µM | 0.867 µM | 2.33 µM | 2.3 µM | 7.27 µM | 1.88 µM | 4.34 µM | 1.4 µM | 3.19 µM
Cn1cc(-c2csc(-c3ccc(Cl)cc3)n2)c2cccnc21 | 13.7 µM | 26.6 µM | 2.85 µM | 26.1 µM | 10.4 µM | 47.5 µM | 14.8 µM | 42.2 µM | 22.8 µM | 66.6 µM | 15.5 µM | 34.4 µM | 15.2 µM | 29.4 µM | 20 µM | 54.3 µM | 5.17 µM | 36.4 µM | 14.6 µM | 29.4 µM
COc1ccc(/C=C(\C#N)c2cc(OC)c(OC)c(OC)c2)cc1 | 0.011 µM | 0.0251 µM | 0.0656 µM | > 100 µM | 0.0244 µM | 0.0661 µM | 21.3 µM | > 100 µM | 0.0293 µM | > 82.8 µM | < 0.0156 µM | 50.7 µM | 0.0634 µM | > 100 µM | 0.0297 µM | > 100 µM | 0.672 µM | 61.8 µM | 0.0359 µM | > 100 µM
C=C(CN1CCc2ccccc2C1)c1ccc(CCCC(=O)Nc2ccccc2N)cc1 | 17 µM | 33.1 µM | 12 µM | 47.1 µM | 7.13 µM | 31.3 µM | 11.7 µM | 25.7 µM | 18.4 µM | 62.8 µM | 14.6 µM | 39.9 µM | 15.7 µM | 29.7 µM | 3.33 µM | 27.7 µM | 11.2 µM | 59.3 µM | 18.4 µM | 44.5 µM
Cc1cc(C)c(-c2c(O)c(Br)c(-c3c(C)cc(C)c(Br)c3C)c(O)c2Br)c(C)c1Br | 1.73 µM | 3.54 µM | 1.62 µM | 8.86 µM | 1.68 µM | 9.67 µM | 1.65 µM | 5.8 µM | 3.08 µM | 10.4 µM | 1.83 µM | 5.01 µM | 2.66 µM | 12.8 µM | 1.88 µM | 10.3 µM | 1.7 µM | 4.84 µM | 2.28 µM | 8.54 µM
COc1cc(C=NCC(=O)CSC(c2ccccc2)c2ccccc2)ccc1O | 10.6 µM | 22.4 µM | 14.3 µM | 50.7 µM | 11.4 µM | 27.6 µM | 6.11 µM | 22.4 µM | 12.6 µM | 25.1 µM | 14.6 µM | 46.9 µM | 14.4 µM | 27.6 µM | 13 µM | 25.9 µM | 2.86 µM | 12.3 µM | 14 µM | 26.9 µM
CCN(CC)c1ccc(/C=N/N=C(N)N)cc1 | 1.79 µM | 3.51 µM | 7.59 µM | 93.8 µM | 2.84 µM | 7.95 µM | 4.45 µM | 18.7 µM | 5.06 µM | 23.5 µM | 3.59 µM | 15.8 µM | 6.27 µM | 20.3 µM | 3.74 µM | > 100 µM | 3.76 µM | 24.5 µM | 5.49 µM | 23.4 µM
S=C(Nc1ccc(-c2nc3ccccc3s2)cc1)Nc1ccc(-c2nc3ccccc3s2)cc1 | 27.4 µM | > 100 µM | 8.79 µM | 30.2 µM | 35.7 µM | > 100 µM | 20 µM | 65.4 µM | 19.9 µM | 49.4 µM | 17.6 µM | > 100 µM | 22.3 µM | 54.8 µM | 10.4 µM | 36.4 µM | 18.8 µM | > 100 µM | 17.2 µM | 41.6 µM
COc1ccc(C(=O)c2ccccc2)c(O)c1 | > 100 µM | > 100 µM | 40.9 µM | > 100 µM | 96.9 µM | > 100 µM | 61.4 µM | > 100 µM | > 100 µM | > 100 µM | 36 µM | > 100 µM | > 100 µM | > 100 µM | 20.4 µM | > 100 µM | 10.1 µM | > 100 µM | 66.3 µM | > 100 µM
COc1ccc(C(=O)Cn2c(C(=O)c3ccc(Cl)cc3)nc(-c3ccccc3)c2-c2ccccc2)cc1 | > 100 µM | > 100 µM | > 100 µM | > 100 µM | > 100 µM | > 100 µM | > 100 µM | > 100 µM | > 100 µM | > 100 µM | 91 µM | > 100 µM | > 100 µM | > 100 µM | 85.8 µM | > 100 µM | > 100 µM | > 100 µM | 73 µM | > 100 µM
